Experimental data published in patent US11059824B2, “Substituted purines as TLR7 agonists” (Primmune Therapeutics, Inc., priority 2018, dated 2021).
Several values for one entry are separate records, joined by “and”; a condition that tells them apart may be missing. Equal entries are not always repeated. Marks after values point to notes of the source that are not given here.

What was measured:
[1] = cynomolgus monkeys, from Table 23 of U.S. Pat. No. 7,575,068 B2, cited from earlier work; for % F (percent bioavailability of loxoribine administered as prodrug): oral prodrug of loxoribine
[2] = test system: interferon-α production in hPBMCs; experiment: Induction of interferon-α production in hPBMCs; format: cell-based, human; details: interferon-α production from hPBMCs; for Weighted MEC: geometric mean of all individual MECs across all donors, 24 hours; for individual MEC values: per donor
Protocol: Treatment of hPBMCs with a TLR7 agonist typically induces substantial production of interferon-α as well as lesser amounts of a variety of other cytokines and chemokines. A typical experiment uses hPBMCs isolated from a healthy donor and placed in replicate cell culture wells; typically 1.0-7.5×10^6 cells are placed in each well. Test compound is added and the cells cultured for 24 hours at 37° C. in a humidified atmosphere containing 5% CO2 post-addition; untreated controls are included. Secreted interferon-α production is measured using an a multisubtype interferon-α ELISA kit like those from PBL Assay Sciences or specifically as IFNα2a as part of a panel of cytokines and chemokines using luminex methodologies. The minimal effective concentration (MEC) is the minimum concentration in a dose response curve where a significant increase in interferon-α production (generally at least 20 pg/ml) is observed above baseline. MEC values for each compound are determined for at least three donors. The weighted MEC for each compound is the geometric mean of all individual MECs across all donors. Concentrations tested typically consist of a two-fold dilution series starting at 100 μM. In the calculation of weighted MEC, any value >100 μM is arbitrarily set to 200 μM unless all MECs for a compound exceed 100 μM

human TLR7 = human TLR7 (Homo sapiens (Human), UniProt Q9NYK1); experiment: TLR7 reporter assay (HEK293-TLR-NF-κB inducible SEAP reporter); format: cell-based; details: HEK293 cells stably expressing human TLR7 with NF-κB-driven SEAP reporter; 15-24 hours
Chain of human TLR7 (Q9NYK1 27-1049): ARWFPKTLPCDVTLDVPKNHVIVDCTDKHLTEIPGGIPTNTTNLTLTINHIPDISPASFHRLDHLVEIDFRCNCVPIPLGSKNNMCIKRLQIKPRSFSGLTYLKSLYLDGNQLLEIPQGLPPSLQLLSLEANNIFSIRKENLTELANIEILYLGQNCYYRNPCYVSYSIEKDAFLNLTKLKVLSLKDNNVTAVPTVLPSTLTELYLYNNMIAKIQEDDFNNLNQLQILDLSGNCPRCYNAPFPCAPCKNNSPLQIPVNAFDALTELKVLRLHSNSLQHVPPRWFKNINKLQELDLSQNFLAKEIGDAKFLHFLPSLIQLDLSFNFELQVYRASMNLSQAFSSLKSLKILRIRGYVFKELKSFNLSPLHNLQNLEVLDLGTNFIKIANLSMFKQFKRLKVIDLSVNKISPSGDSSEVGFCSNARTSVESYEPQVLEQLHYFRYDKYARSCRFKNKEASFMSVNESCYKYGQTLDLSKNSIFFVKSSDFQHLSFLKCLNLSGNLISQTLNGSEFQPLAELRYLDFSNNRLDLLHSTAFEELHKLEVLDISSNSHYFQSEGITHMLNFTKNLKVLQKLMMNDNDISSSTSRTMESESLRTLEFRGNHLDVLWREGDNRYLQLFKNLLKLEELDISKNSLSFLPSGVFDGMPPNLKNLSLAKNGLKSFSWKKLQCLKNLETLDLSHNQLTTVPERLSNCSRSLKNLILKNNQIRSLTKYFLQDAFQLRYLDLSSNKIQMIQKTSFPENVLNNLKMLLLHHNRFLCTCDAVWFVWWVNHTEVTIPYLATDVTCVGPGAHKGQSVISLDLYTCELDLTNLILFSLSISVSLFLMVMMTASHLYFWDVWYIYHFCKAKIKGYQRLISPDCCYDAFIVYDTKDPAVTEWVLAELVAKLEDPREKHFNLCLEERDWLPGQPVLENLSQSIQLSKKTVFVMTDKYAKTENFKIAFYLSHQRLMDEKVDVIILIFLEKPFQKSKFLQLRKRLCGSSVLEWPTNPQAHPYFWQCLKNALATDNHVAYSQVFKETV
Text: (§1) The engagement of TLRs by cognate ligands triggers downstream signaling cascades, leading to the activation of NF-κB and other transcription factors which initiate various immunomodulatory effects. The human embryonic kidney cell line, HEK293, is essentially non-responsive to TLR agonists, but ectopic expression of TLRs in these cells allows cognate agonists to activate endogenous NF-κB. Accordingly, the HEK293-TLR-NF-κB inducible reporter system is used to assay TLR agonists. HEK293 cell lines stably expressing human TLR7 or TLR8 together with an NF-κB-driven-secreted alkaline phosphatase (SEAP) reporter were invented at InvivoGen (San Diego, Calif., USA) and used to assess compounds of the present invention for TLR7 and TLR8 agonist activities. Cells were seeded at 2-5×10^4 cells/well in 96 well plates ([…]) and treated with various concentrations of compound (10 μl) for 15-24 hours. SEAP activity was determined by measuring OD at 650 nm; the media used to culture the cell lines contains the reagents required for SEAP detection. The EC50 values in Table 2 are calculated from fitting the dose response of measured SEAP activity for each compound to the following equation: Y=ymax*c^nh/(EC50^nh+c^nh)+blank where Y is the experimentally measured OD650 at concentration c of test article, blank is the observed OD650 in the absence of TLR7 agonist, ymax is the difference between the measured OD650 in the presence of either 28.5 μM resiquimod or 1.675 μM CL307 and the blank and values of EC50 and nh are determined by nonlinear least squares analysis.

[3] = Oral bioavailability in cynomolgus monkeys; format: in vivo; details: vs loxoribine administered orally as itself or as prodrugs
Protocol: From two to four male or female cynomolgus monkeys were used for animal testing studies. The study compounds were formulated in a vehicle (e.g. 50 mM Phosphate Buffered Saline, pH 7.4) appropriate for animal oral or intravenous administration. Parent compounds 1, 5, 26 and 27 were administered at 1 mg/kg by IV administration whereas prodrugs of the corresponding compounds were administered at 2 mg/kg. After dosing, 0.5 mL blood samples were collected typically at 0.083, 0.33, 1, 2, 4, 6, 8, 12 and 24 hours post-dosing (iv administration) or 0.25, 0.5, 1, 2, 4, 6, 8, 12 and 24 hours post-dosing (oral administration). Plasma was separated from blood and analyzed for the active agonists by well-known LC-MS techniques. […] Percent bioavailability (F %) of compounds when administered orally as prodrug was calculated from the ratio of dose-normalized AUC of parent from oral prodrug administration to that of dose-normalized parent AUC from IV parent administration and reported in Table 4.

[4] = test system: B16-F10 rodent melanoma tumor cells; experiment: Antitumor activity in rodent model (B16-F10 syngenic); format: in vivo, mice; details: IV by tail vein, 10 total doses, two weeks after randomization
Protocol: B16-F10 rodent melanoma tumor cells were injected into the flank of 32 mice in a syngenic model. […] Administration of the drugs was initiated on the following day. Tumor volumes were monitored for two weeks.

human TLR8 = human TLR8 (Homo sapiens (Human), UniProt Q9NR97); experiment: TLR8 reporter cell assay (HEK293-TLR-NF-κB inducible SEAP reporter); format: cell-based; details: incubation with resiquimod
Chain of human TLR8 (Q9NR97 27-1041): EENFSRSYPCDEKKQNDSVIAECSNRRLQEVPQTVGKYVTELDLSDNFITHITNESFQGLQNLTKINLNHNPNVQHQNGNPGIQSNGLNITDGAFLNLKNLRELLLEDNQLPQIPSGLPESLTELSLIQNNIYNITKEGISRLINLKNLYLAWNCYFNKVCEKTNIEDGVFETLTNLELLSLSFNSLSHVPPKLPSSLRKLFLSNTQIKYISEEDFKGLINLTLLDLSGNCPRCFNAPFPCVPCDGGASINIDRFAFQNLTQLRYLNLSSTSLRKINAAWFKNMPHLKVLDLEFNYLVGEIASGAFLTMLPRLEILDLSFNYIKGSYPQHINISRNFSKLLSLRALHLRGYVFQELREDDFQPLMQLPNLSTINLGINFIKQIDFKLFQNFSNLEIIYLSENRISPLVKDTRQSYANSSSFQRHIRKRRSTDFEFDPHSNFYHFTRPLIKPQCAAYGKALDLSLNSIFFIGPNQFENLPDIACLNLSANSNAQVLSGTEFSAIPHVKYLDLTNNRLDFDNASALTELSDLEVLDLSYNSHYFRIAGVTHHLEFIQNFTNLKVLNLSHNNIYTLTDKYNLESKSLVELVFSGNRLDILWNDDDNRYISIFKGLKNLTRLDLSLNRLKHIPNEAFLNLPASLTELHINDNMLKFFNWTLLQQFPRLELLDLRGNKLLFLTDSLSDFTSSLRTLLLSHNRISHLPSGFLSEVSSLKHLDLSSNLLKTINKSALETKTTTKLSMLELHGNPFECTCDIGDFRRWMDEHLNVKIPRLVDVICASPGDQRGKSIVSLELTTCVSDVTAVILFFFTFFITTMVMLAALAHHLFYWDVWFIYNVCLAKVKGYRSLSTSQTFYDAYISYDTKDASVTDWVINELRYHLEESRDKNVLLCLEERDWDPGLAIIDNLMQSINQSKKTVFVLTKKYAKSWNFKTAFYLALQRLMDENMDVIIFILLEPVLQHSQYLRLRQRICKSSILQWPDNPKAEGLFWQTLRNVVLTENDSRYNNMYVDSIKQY
Text: as §1, with “The EC50 values in Table 2 are calculated from fitting the dose response of measured SEAP activity for each compound to the following equation: Y=ymax*c^nh/(EC50^nh+c^nh)+blank where Y is the experimentally measured OD650 at concentration c of test article, blank is the observed OD650 in the absence of TLR7 agonist, ymax is the difference between the measured OD650 in the presence of either 28.5 μM resiquimod or 1.675 μM CL307 and the blank and values of EC50 and nh are determined by nonlinear least squares analysis.” left out

Row | Compound | EC50 (human TLR7) [µM] | Weighted MEC [2] | individual MEC values [2] [µM] | also measured
1 | C=CCn1c(=O)n([C@@H]2O[C@H](CO)[C@@H](O)[C@H]2O)c2nc(N)nc(OCC)c21 [7-allyl-2-amino-6-ethoxy-9-β-D-ribofuranosyl-7,9-dihydropurin-8-one] |  |  |  | % F (percent bioavailability of loxoribine administered as prodrug) [1]: 9%
2 | C=CCn1c(=O)n([C@@H]2O[C@H](CO)[C@@H](O)[C@H]2O)c2nc(N)ncc21 [7-allyl-2-amino-9-β-D-ribofuranosyl-7,9-dihydropurin-8-one] |  |  |  | % F (percent bioavailability of loxoribine administered as prodrug) [1]: 13%
3 | Nc1nc2c(c(=O)[nH]1)n(CC1CC1)c(=O)n2[C@@H]1O[C@H](CO)[C@H](O)[C@H]1O [Compound 1, 2-Amino-7-(cyclopropylmethyl)-9-((2R,3R,4R,5R)-3,4-dihydroxy-5-(hydroxymethyl)tetrahydrofuran-2-yl)-7,9-dihydro-1H-purine-6,8-dione] | 188 | 66* μM |  | Systemic delivery by prodrugs compared with loxoribine [3]: substantially greater than loxoribine
4 | C#CCn1c(=O)n([C@@H]2O[C@H](CO)[C@H](O)[C@H]2O)c2nc(N)[nH]c(=O)c21 [Compound 5, 2-Amino-9-((2R,3R,4R,5R)-3,4-dihydroxy-5-(hydroxymethyl)tetrahydrofuran-2-yl)-7-(prop-2-yn-1-yl)-7,9-dihydro-1H-purine-6,8-dione] | 292 | less than or equal to 40 μM and 34 μM | < 100 | Mean tumor growth inhibition (% TGI) versus the control group ([4]; group (ii): 40 mg/kg, BID for five consecutive days): 40%; Mean tumor growth inhibition (% TGI) versus the control group ([4]; group (iii): 40 mg/kg, BID every other day): 64%
5 | C=CCn1c(=O)n([C@@H]2O[C@H](CO)[C@@H](O)[C@H]2O)c2nc(N)[nH]c(=O)c21 [loxoribine, reference compound] | 322 | 136* μM |  | % F (intrinsic bioavailability of loxoribine) ([1]; loxoribine administered orally as loxoribine itself): 2%^b
6 | CCOCc1nc2c(N)nc3ccccc3c2n1CC(C)(C)O [resiquimod] |  |  |  | induction of SEAP production in the TLR8 reporter cell assay (human TLR8): Substantial induction of SEAP production

Now from value to compound, other results behind:

Row | EC50 (human TLR7) [µM] | Compound | Weighted MEC [2] | individual MEC values [2] [µM] | also measured
7 | 519 | C#CCn1c(=O)n([C@@H]2O[C@H](CO)C[C@H]2O)c2nc(N)[nH]c(=O)c21 [Compound 26, 2-Amino-9-((2R,3R,5S)-3-hydroxy-5-(hydroxymethyl)tetrahydrofuran-2-yl)-7-(prop-2-yn-1-yl)-7,9-dihydro-1H-purine-6,8-dione] | less than or equal to 40 μM and 31 μM | < 100 | Systemic delivery by prodrugs compared with loxoribine [3]: substantially greater than loxoribine
8 | 376 | C#CCn1c(=O)n([C@@H]2O[C@H](CO)[C@@H](F)[C@H]2O)c2nc(N)[nH]c(=O)c21 [Compound 27, 2-Amino-9-((2R,3S,4S,5R)-4-fluoro-3-hydroxy-5-(hydroxymethyl)tetrahydrofuran-2-yl)-7-(prop-2-yn-1-yl)-7,9-dihydro-1H-purine-6,8-dione] | less than or equal to 40 μM and 23 μM | < 100 | Systemic delivery by prodrugs compared with loxoribine [3]: substantially greater than loxoribine
9 | 512 | Nc1nc2c(c(=O)[nH]1)n(Cc1cccc(F)c1)c(=O)n2[C@@H]1O[C@H](CO)C[C@H]1O [Compound 34, 2-Amino-7-(3-fluorobenzyl)-9-((2R,3R,5S)-3-hydroxy-5-(hydroxymethyl)tetrahydrofuran-2-yl)-7,9-dihydro-1H-purine-6,8-dione] | less than or equal to 40 μM and 40 μM | < 100 | 
10 | 1160 | Nc1nc2c(c(=O)[nH]1)n(Cc1ccc(C(F)(F)F)cc1)c(=O)n2[C@@H]1O[C@H](CO)C[C@H]1O [Compound 35, 2-Amino-9-((2R,3R,5S)-3-hydroxy-5-(hydroxymethyl)tetrahydrofuran-2-yl)-7-(4-(trifluoromethyl)benzyl)-7,9-dihydro-1H-purine-6,8-dione] | 79* μM |  | 
11 | 1210 | C=CCn1c(=O)n([C@@H]2O[C@H](CO)C[C@H]2O)c2nc(N)[nH]c(=O)c21 [Compound 36, 7-Allyl-2-amino-9-((2R,3R,5S)-3-hydroxy-5-(hydroxymethyl)tetrahydrofuran-2-yl)-7,9-dihydro-1H-purine-6,8-dione] | 100 µM |  | 
12 | 564 | CCCCn1c(=O)n([C@@H]2O[C@H](CO)C[C@H]2O)c2nc(N)[nH]c(=O)c21 [Compound 37, 2-Amino-7-butyl-9-((2R,3R,5S)-3-hydroxy-5-(hydroxymethyl)tetrahydrofuran-2-yl)-7,9-dihydro-1H-purine-6,8-dione] | 50 µM |  | 
